Some results are limits rather than exact numbers.

Assay [1] has as its system Mouse bone marrow-derived mesenchymal cell line ST2 cells. As to the kind of experiment: Osteoblast differentiation test (alkaline phosphatase activity). Format: cell-based. To be noted: ST-2, 96 h, at 0.1 μg/mL, 4 days of culture, absorbance at 405 nm, DMSO control = 100%, read-out: alkaline phosphatase activity (increase rate in absorbance, control as 100%). The procedure: Mouse bone marrow-derived mesenchymal cell line ST2 cells (source of supply: RIKEN) were seeded in α-MEM medium containing 10% fetal bovine serum (source of supply: GIBCO BRL Cat. No. 12000-022) in a 96 well plate at a cell density of 4×10^3 cells/0.1 mL/well, and cultured for 24 hr under the conditions of 37° C., 5% CO2. Then, each test compound was added at a final concentration of 0.001-10 μM, and the final concentration 0.1% (v/v) of DMSO was added to the control. After 4 days of culture, alkaline phosphatase (ALP) activity was measured by the following method.
The medium in the cultured 96 well plate was removed, the cells were washed with PBS buffer (KCl 0.2 g/L, KH2PO4 0.2 g/L, Na2HPO4.12H2O 2.9 g/L, NaCl 8 g/L) (100 μL/well), cell lysate (10 mM MgCl2, 2% (v/v) Triton X-100) (50 μL/well) was added, and the mixture was stirred at room temperature for 3 min. A substrate solution (50 mM diethanolamine (Wako Pure Chemical Industries, Ltd. Cat. No. 099-03112), 20 mM […] (Nacalai Tesque Cat. No. 25019-81)) (50 μL/well) was added, and the mixture was left standing at room temperature for 9 min. 1N NaOH 50 μL/well was added to discontinue the reaction, and the absorbance at 405 nm was measured by a microplate reader (Dainippon Pharmaceutical Co., Ltd.)
An increase rate (%) in the absorbance by the test compound was calculated based on the absorbance of the control as 100%, and the differentiation degree of the osteoblast was evaluated.

In another assay the test system is female F344 rats. Description: Influence on bone density (ovariectomy, femur, DXA). In kind it is in vivo, rat. To be noted: at not more than 10 mg/kg; orally once per day, 6 or 7 days per week, 8 weeks; ovariectomized 12-week-old female F344 rats; femur by DXA. The text has this:
12-week-old female F344 rats (SLC) underwent ovariectomy or sham surgery under anesthesia. The test compound was suspended in 0.5% methylcellulose solution (Wako Pure Chemical Industries, Ltd. Cat. No. 133-14255) and orally administered once per day, 6 or 7 days per week, from two days after the surgery. A 0.5% methylcellulose solution was orally administered to a control group. At 8 weeks from the administration, they were euthanized by drawing the whole blood from the abdominal artery under anesthesia, and the left and right femurs were excised.
The soft tissues were removed from the excised femurs, and the bone density was measured by DXA device DCS-600R (Aloka Co., Ltd.). The bone density was evaluated for the whole femur as well as the whole divided into three equal portions of proximal end, diaphysis and distal end portion.

Take `COc1cc(Nc2ccc(N3CC(OCCO)C3)cc2)c(NC(C)=O)cn1` [Example 1, N-(4-{4-[3-(2-hydroxyethoxy)azetidin-1-yl]phenylamino}-6-methoxypyridin-3-yl)acetamide]: the activity at 0.1 µg/mL in assay [1] is ≥ 200%. In addition, in the assay with female F344 rats, the bone density result is reported as “significantly increased”.
The corresponding values for `CC(=O)c1ccc(C(N)=O)cc1Oc1ccc(OCCOC2CCOCC2)cc1` [Example 32, 4-acetyl-3-{4-[2-(tetrahydropyran-4-yloxy)ethoxy]phenoxy}benzamide] are ≥ 200% and “significantly increased”.
Take `CC(O)c1ccc(C(N)=O)cc1Oc1ccc(OCCOC2CCOCC2)cc1` (stereo not drawn) [Example 38, 4-(1-hydroxyethyl)-3-{4-[2-(tetrahydropyran-4-yloxy)ethoxy]phenoxy}benzamide]: in assay [1], the activity at 0.1 µg/mL was ≥ 200%. Further, in the assay on female F344 rats, the bone density entry is “significantly increased”.
For `C[C@@H](O)c1ccc(C(N)=O)cc1Oc1ccc(OCCOC2CCOCC2)cc1` [Example 43, (R)-4-(1-hydroxyethyl)-3-{4-[2-(tetrahydropyran-4-yloxy)ethoxy]phenoxy}benzamide] the same measures were ≥ 200% and “significantly increased”.
For `CC(=O)c1ccc(C(N)=O)cc1Oc1ccc(OCCOC2CCOC2)cc1` (stereo not drawn) [Example 67] the same measures were ≥ 200% and “significantly increased”.
The corresponding values for `C[C@@H](O)c1ccc(C(N)=O)cc1Oc1ccc(OCCOC2CCOC2)cc1` (stereo partly drawn) [Example 77] are ≥ 200% and “significantly increased”.

These data come from US10059663B2, “Aromatic compound and use thereof” (Kyoto Pharmaceutical Industries, Ltd., priority 2013, dated 2018).
